The numbers were not newly measured in patent US20230102999A1, “DEUTERATED NICLOSAMIDE” (First Wave Bio, Inc., priority 2020, published 2023), which cites them from elsewhere.

Structures can show the parent of a compound that is named as a salt.

For series [1] the following is noted: at 20° C.

On to `O=C(Nc1ccc([N+](=O)[O-])cc1Cl)c1cc(Cl)ccc1O` [Niclosamide, 5-chloro-N-(2-chloro-4-nitrophenyl)-2-hydroxybenzamide], for which the solubility in acetone result (acetone) is given as “soluble”. In addition, the “solubility in ether, ethanol and chloroform” value (ether, ethanol and chloroform) is recorded as “sparingly soluble”. For the same molecule, the water solubility in series [1] (water) is 5 to 8 mg/L.
Consider `O=C(Nc1ccc([N+](=O)[O-])cc1Cl)c1cc(Cl)ccc1O` [ethanolamine salt, 5-chloro-salicyl-(2-chloro-4-nitro) anilide 2-aminoethanol salt], for which, in series [1] (distilled water), the “dissolves in distilled water” value is 180 to 280 mg/L.
